In ChEMBL document CHEMBL1909046, “DrugMatrix in vitro pharmacology data”:

Key:
[1] = biological target: T1, Neuropeptide Y receptor type 2 (Homo sapiens, UniProt P49146); assay type: cell membranes, KAN-TS, Membrane; details: kan-ts; note: in other assays of this panel Not Active means under 50% inhibition at 10 µM
T1 sequence (P49146 whole entry): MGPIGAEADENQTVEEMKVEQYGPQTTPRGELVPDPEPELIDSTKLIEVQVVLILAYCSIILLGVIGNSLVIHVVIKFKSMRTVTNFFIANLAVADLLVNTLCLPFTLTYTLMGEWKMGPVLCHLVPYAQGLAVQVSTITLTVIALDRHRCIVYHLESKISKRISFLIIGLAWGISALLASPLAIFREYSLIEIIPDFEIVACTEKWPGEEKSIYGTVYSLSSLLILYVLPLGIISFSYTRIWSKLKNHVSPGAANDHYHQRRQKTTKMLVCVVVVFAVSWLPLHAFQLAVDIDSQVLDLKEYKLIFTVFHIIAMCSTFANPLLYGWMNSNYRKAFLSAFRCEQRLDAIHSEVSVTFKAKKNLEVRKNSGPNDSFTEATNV

[2] = biological target: T2, Receptor-type tyrosine-protein phosphatase C (Homo sapiens, UniProt P08575); parameters: species or system Escherichia coli;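 note: inhibition of CD45 enzyme activity measured using DiFMUP as substrate; in other assays of this panel Not Active means under 50% inhibition at 10 µM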
T2 sequence (P08575 whole entry): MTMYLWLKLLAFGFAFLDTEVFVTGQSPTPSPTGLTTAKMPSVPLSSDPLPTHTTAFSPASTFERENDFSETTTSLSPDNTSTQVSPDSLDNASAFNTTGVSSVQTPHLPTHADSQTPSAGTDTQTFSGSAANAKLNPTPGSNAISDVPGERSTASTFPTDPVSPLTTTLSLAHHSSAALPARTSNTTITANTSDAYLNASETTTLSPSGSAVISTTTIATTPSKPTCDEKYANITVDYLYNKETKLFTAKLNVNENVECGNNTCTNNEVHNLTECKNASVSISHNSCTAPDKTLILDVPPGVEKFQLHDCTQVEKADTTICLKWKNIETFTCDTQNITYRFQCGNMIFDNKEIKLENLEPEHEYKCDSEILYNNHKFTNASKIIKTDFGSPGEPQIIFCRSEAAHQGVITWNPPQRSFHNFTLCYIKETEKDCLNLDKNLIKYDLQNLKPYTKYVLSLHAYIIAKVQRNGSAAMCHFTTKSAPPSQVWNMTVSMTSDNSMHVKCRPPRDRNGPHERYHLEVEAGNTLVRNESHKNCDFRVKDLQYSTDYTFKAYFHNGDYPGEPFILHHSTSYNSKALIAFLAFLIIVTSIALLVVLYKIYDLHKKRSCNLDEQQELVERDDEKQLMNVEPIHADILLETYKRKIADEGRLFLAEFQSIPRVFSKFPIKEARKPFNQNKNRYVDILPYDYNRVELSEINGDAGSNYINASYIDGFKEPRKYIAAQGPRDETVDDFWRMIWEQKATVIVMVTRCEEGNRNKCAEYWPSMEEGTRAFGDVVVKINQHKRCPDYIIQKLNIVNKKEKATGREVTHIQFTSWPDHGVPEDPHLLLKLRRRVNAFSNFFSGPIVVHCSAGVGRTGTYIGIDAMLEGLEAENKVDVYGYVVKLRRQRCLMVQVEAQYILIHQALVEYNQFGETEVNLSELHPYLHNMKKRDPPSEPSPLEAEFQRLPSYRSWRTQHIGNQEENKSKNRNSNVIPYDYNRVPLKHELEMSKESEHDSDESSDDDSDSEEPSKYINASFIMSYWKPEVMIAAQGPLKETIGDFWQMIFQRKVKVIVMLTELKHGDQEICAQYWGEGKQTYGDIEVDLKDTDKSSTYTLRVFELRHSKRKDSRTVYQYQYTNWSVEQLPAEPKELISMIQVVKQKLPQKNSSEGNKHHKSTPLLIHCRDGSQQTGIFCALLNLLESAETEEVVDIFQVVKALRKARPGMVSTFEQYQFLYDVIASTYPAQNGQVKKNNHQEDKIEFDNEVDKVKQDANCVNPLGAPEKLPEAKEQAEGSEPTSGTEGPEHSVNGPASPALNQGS

[3] = DRUGMATRIX: Phosphodiesterase PDE4 enzyme inhibition (substrate: [3H]cAMP + cAMP); details: u-937; Not Active = under 50% inhibition at 10 µM
[4] = biological target: T3, C-X-C chemokine receptor type 1 (Homo sapiens, UniProt P25024); note: in other assays of this panel Not Active means under 50% inhibition at 10 µM
T3 sequence (P25024 whole entry): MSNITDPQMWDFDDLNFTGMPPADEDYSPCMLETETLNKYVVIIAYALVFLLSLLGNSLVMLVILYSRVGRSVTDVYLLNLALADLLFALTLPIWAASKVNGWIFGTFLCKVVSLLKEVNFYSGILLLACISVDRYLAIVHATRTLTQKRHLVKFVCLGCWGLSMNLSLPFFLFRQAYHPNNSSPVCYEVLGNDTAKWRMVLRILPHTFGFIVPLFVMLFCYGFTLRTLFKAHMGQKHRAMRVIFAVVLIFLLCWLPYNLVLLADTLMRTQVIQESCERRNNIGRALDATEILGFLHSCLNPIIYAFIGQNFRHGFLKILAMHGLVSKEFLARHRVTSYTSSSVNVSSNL

[5] = DRUGMATRIX: Phorbol Ester radioligand binding (ligand: [3H] PDBu); assay type: cell membranes, Mus musculus, ICR, Brain, Membrane; details: Not Active = under 50% inhibition at 10 µM
[6] = biological target: Delta-type opioid receptor (Homo sapiens, UniProt P41143); assay type: cell membranes, Membrane; details: hek293; note: in other assays of this panel Not Active means under 50% inhibition at 10 µM
Chain of Delta-type opioid receptor (P41143 whole entry): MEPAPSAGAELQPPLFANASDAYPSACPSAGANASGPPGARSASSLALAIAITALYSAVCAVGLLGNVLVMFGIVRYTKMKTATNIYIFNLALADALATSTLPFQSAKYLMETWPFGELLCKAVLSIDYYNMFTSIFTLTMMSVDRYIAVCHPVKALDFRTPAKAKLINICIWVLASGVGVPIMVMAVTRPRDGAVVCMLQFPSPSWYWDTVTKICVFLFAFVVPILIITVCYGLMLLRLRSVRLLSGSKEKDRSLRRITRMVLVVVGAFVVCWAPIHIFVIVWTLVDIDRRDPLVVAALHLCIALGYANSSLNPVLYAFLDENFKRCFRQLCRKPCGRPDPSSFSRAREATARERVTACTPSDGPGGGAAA

Cytochrome P450 2E1 = Cytochrome P450 2E1 (Homo sapiens, UniProt P05181); details: bti-tn-5b1-4; note: in other assays of this panel Not Active means under 50% inhibition at 10 µM
Chain of Cytochrome P450 2E1 (P05181 whole entry): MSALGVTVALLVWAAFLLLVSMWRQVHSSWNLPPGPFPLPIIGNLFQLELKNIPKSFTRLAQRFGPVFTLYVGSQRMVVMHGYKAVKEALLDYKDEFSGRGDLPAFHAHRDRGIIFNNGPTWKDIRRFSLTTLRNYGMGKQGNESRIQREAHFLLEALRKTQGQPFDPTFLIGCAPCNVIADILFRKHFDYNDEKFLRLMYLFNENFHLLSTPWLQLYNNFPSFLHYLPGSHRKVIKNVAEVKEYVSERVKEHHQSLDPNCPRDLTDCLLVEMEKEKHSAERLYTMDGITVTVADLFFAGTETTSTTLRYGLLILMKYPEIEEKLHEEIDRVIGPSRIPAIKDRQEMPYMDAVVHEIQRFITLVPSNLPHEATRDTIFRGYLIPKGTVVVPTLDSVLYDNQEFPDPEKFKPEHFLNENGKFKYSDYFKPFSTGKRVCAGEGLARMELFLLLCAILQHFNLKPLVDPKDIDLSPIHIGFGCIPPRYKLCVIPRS

Vasopressin V1a receptor = Vasopressin V1a receptor (Homo sapiens, UniProt P37288); assay type: cell membranes, Membrane; details: hek293; note: in other assays of this panel Not Active means under 50% inhibition at 10 µM
Chain of Vasopressin V1a receptor (P37288 whole entry): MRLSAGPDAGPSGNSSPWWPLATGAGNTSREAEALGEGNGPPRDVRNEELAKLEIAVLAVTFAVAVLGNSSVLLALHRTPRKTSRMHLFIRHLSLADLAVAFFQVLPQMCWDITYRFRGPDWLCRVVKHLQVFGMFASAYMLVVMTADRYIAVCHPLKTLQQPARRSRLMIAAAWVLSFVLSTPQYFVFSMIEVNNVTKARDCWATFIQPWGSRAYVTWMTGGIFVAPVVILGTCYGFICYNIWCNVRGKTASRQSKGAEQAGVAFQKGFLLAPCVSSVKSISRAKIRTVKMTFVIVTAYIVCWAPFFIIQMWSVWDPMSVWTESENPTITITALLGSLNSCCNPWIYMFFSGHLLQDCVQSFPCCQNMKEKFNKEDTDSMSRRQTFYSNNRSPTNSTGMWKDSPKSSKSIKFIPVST

[7] = DRUGMATRIX: Tumor Necrosis Factor (TNF), Non-Selective radioligand binding (ligand: [125I] TNF-alpha); assay type: cell membranes, Membrane; details: u-937; Not Active = under 50% inhibition at 10 µM

Oc1cccc(O)c1O [PYROGALLOL]
Not Active: IC50 [1] | IC50 [2] | IC50 [3] | Ki [3] | IC50 [4] | IC50 [5] | Ki [5] | IC50 [6] | IC50 (Cytochrome P450 2E1) | Ki (Cytochrome P450 2E1) | IC50 (Vasopressin V1a receptor) | IC50 [7] | Ki [7]

AURANOFIN
Not Active: IC50 [1] | Ki [1] | IC50 [2] | Ki [2] | IC50 [3] | Ki [3] | IC50 [4] | Ki [4] | IC50 [5] | Ki [5] | IC50 [6] | Ki [6] | IC50 (Cytochrome P450 2E1) | Ki (Cytochrome P450 2E1) | IC50 (Vasopressin V1a receptor) | Ki (Vasopressin V1a receptor) | IC50 [7] | Ki [7]

GADOPENTETATE DIMEGLUMINE
Not Active: IC50 [1] | Ki [1] | IC50 [2] | Ki [2] | IC50 [3] | Ki [3] | IC50 [4] | Ki [4] | IC50 [5] | Ki [5] | IC50 [6] | Ki [6] | IC50 (Cytochrome P450 2E1) | Ki (Cytochrome P450 2E1) | IC50 (Vasopressin V1a receptor) | Ki (Vasopressin V1a receptor) | IC50 [7] | Ki [7]

GENTAMICIN
Not Active: IC50 [1] | Ki [1] | IC50 [2] | Ki [2] | IC50 [3] | Ki [3] | IC50 [4] | Ki [4] | IC50 [5] | Ki [5] | IC50 [6] | Ki [6] | IC50 (Cytochrome P450 2E1) | Ki (Cytochrome P450 2E1) | IC50 (Vasopressin V1a receptor) | Ki (Vasopressin V1a receptor) | IC50 [7] | Ki [7]

GRAMICIDIN
Not Active: IC50 [1] | Ki [1] | IC50 [2] | Ki [2] | IC50 [3] | Ki [3] | IC50 [4] | Ki [4] | IC50 [5] | Ki [5] | IC50 [6] | Ki [6] | IC50 (Cytochrome P450 2E1) | Ki (Cytochrome P450 2E1) | IC50 (Vasopressin V1a receptor) | Ki (Vasopressin V1a receptor) | IC50 [7] | Ki [7]

NYSTATIN
Not Active: IC50 [1] | Ki [1] | IC50 [2] | Ki [2] | IC50 [3] | Ki [3] | IC50 [4] | Ki [4] | IC50 [5] | Ki [5] | IC50 [6] | Ki [6] | IC50 (Cytochrome P450 2E1) | Ki (Cytochrome P450 2E1) | IC50 (Vasopressin V1a receptor) | Ki (Vasopressin V1a receptor) | IC50 [7] | Ki [7]
